Read-outs that look alike come from different tables or passages of the source. Each block holds one compound with its values, some of them ahead of it.
Key:
[1] = Cladribine pharmacokinetics following oral administration; settings: MS patients; after oral administration of single 10-mg tablet
[2] = Intracellular pharmacokinetics of Cd-AMP and Cd-ATP in patients with chronic myelogenous leukemia; settings: human, in vivo
Experimental: After entering the target cells, Cladribine is phosphorylated to Cladribine monophosphate (Cd-AMP) by DCK (and also by deoxyguanosine kinase in the mitochondria). Cd-AMP is further phosphorylated to Cladribine diphosphate (Cd-ADP) and Cladribine triphosphate (Cd-ATP). The dephosphorylation and deactivation of Cd-AMP is catalyzed by cytoplasmic […].
Intracellular half-life of Cd-ATP was 10 h.

Plasma protein binding = assay type: in vitro ADME; settings: independent of plasma concentration
human hepatocytes = experiment: In vitro transporter-mediated uptake; assay type: in vitro ADME
[3] = Metabolism in hepatic in vitro systems; assay type: in vitro ADME
Description: In hepatic in vitro systems, negligible metabolism of Cladribine was observed (at least 90% was unchanged Cladribine)

mice [4] = experiment: Repeat-dose toxicology studies by parenteral routes; assay type: in vivo
monkeys = experiment: Repeat-dose toxicology studies by parenteral routes up to 1-year duration; assay type: in vivo
bacteria = experiment: Gene mutation test; assay type: cell-based
Experimental: (§1) Cladribine is incorporated into DNA strands and inhibits DNA synthesis and repair. […] In vivo clastogenicity in mice was detected at 10 mg/kg, which was the lowest dose tested.

mammalian cells = experiment: Gene mutation test; assay type: cell-based
mice [5] = experiment: In vivo clastogenicity (mouse micronucleus study)
Experimental: as §1

Tg rasH2 mice = experiment: Short-term 26-week carcinogenicity study, oral; assay type: in vivo
monkey = experiment: 1-year monkey study by the subcutaneous route (tumors); assay type: in vivo
[6] = tested on: patients with relapsing forms of clinically definite multiple sclerosis; experiment: Example 3: oral Cladribine induction/maintenance regimen in relapsing forms of MS; assay type: in vivo, human; settings: induction treatment and maintenance treatments
Description: The efficacy and safety of oral Cladribine administration, eventually multi-dose administration, as described herein, can alternatively also be assessed for example following the protocol for the treatment of relapsing forms of […] as given below.
A study of sixty patients with relapsing forms of clinically definite multiple sclerosis is undertaken. Each patient is first examined for normal hepatic, renal, and bone marrow functioning to establish baseline values
Patients are selected from Male or Female, between 18 and 55 years of age who had one or more relapses within the prior 12 months Female patients are non-pregnant female
Each of the patients in Groups 2 and 3 receives 3 mg or 10 mg 2-CdA (1, 2 or 3 administration(s) a day depending on the patient's weight) combined in cyclodextrin formulation a described in WO 2004/087101, Example 3. The Compositions of the Cladaribine formulations in 3 mg or 10 mg 2-CdA tablets containing […] are listed in Table 2, below. […]
Patients are monitored to determine whether there is any progression or improvement of brain lesions associated with progression of MS through MRI scans and neurological examination as described in Miller et at, 1996, above; Evans et al, 1997, above; Sipe et at, 1984, above; and Mattson, 2002, above. […]

[7] = tested on: patients with relapsing-remitting MS; settings: cited from earlier work; for annualized rate of relapse / relapse-free rate: 96 weeks
CYP2C8 = CYP2C8 (Homo sapiens, UniProt P10632)
Chain of CYP2C8 (P10632 whole entry): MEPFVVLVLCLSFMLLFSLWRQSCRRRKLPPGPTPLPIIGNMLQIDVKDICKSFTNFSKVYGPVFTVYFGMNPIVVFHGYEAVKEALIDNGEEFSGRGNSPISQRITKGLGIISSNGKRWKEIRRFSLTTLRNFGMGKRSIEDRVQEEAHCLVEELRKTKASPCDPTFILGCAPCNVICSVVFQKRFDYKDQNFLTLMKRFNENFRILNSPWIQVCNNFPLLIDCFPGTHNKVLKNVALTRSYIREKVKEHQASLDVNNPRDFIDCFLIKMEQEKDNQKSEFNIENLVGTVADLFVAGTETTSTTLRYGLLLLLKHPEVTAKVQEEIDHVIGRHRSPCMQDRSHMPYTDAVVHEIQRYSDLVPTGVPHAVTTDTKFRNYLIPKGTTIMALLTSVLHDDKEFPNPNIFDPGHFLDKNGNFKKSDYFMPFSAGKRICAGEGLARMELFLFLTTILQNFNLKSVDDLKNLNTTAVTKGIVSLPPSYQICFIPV

CYP2C19 = CYP2C19 (Homo sapiens, UniProt P33261)
Chain of CYP2C19 (P33261 whole entry): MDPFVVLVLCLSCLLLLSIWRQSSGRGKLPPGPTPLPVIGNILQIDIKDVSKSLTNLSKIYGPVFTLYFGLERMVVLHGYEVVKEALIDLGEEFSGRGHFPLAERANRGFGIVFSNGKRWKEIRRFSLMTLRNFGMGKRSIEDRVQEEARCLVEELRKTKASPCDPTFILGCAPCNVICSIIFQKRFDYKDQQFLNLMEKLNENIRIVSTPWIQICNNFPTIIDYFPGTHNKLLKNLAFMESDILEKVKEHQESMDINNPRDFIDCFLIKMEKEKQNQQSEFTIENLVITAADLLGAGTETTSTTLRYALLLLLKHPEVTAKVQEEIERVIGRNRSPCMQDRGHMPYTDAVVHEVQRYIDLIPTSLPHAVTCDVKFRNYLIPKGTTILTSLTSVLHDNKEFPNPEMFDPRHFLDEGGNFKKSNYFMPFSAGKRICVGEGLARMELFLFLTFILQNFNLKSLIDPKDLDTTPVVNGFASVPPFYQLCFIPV

CYP2D6 = CYP2D6 (Homo sapiens, UniProt P10635)
Chain of CYP2D6 (P10635 whole entry): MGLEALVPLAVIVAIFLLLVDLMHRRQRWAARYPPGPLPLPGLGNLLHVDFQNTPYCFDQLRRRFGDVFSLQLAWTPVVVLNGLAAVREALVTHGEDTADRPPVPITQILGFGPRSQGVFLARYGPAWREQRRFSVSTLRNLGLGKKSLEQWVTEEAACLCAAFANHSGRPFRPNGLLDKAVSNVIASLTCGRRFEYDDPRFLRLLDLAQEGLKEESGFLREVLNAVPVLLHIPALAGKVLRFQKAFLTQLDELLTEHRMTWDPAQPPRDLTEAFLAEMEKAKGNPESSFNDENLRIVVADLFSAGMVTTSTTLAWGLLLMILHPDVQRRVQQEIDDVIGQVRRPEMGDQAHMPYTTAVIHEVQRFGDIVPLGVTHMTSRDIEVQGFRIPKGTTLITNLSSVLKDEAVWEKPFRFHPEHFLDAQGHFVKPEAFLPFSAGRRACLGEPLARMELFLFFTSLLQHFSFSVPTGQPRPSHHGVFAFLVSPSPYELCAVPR

[8] = in vivo; cited from earlier work
[9] = tested on: patients with relapsing-remitting MS; experiment: CLARITY study: oral Cladribine vs placebo over 96 weeks
[10] = Population pharmacokinetic analysis (pooled data from various studies)
PPMS patients [11] = settings: cited from earlier work
PPMS patients [12] = settings: ORATORIO, cited from earlier work
PPMS patients [13] = settings: cited from earlier work; remark: listed apart in the source
[14] = post-hoc, high disease activity

metabolite share of plasma parent drug exposure [1]: < 3%
Compound: Nc1nc(Cl)nc2nc[nH]c12 [2-chloroadenine]

half-life [2]: 10 h
intracellular levels relative to Cd-AMP [2]: approximately half of the Cd-AMP levels
Compound: Nc1nc(Cl)nc2c1ncn2[C@H]1C[C@H](O)[C@@H](COP(=O)(O)OP(=O)(O)OP(=O)(O)O)O1 [Cd-ATP, 2-chlorodeoxyadenosine triphosphate]

Compound: Nc1nc(Cl)nc2c1ncn2[C@H]1C[C@H](O)[C@@H](CO)O1 [Cladribine, 2-chloro-2′deoxyadenosine]
fraction unbound (Plasma protein binding): 0.8
transporter-mediated uptake into human hepatocytes (human hepatocytes): negligible
unchanged Cladribine [3]: at least 90%
effects on the kidneys (mice [4]): Effects on the kidneys were also seen
primary target organs (mice [4]; intravenous or subcutaneous, up to 1-year duration): lymphoid and hematopoietic system
primary target organs (monkeys; intravenous or subcutaneous, up to 1-year duration, monkeys): lymphoid and hematopoietic system
testicular effects (monkeys; monkey): Testicular degeneration and reversible decrease in spermatozoa with rapid progressive motility
other target organs after longer administration (14 cycles) (monkeys; subcutaneous route, monkeys): kidneys (karyomegaly of renal tubular epithelium), adrenals (cortex atrophy and decreased vacuolation), gastrointestinal tract (mucosa atrophy) and testes
gene mutation (bacteria): did not induce gene mutation
gene mutation (mammalian cells): did not induce gene mutation
dose at which in vivo clastogenicity was detected (lowest dose tested) (mice [5]): 10 mg/kg
exposure multiple vs expected human AUC at maximum daily dose of 20 mg (Tg rasH2 mice; 30 mg/kg per day): approximately 25 fold
tumor incidence (Tg rasH2 mice; 26-week, oral, up to 30 mg/kg per day, Tg rasH2 mice): no Cladribine-related increase in incidence of lymphoproliferative disorders or other tumor types
tumor incidence (monkey): No increased incidence in lymphoproliferative disorders and no tumors were seen
adverse effect [6]: no severe adverse effect is observed
brain lesions ([6]; oral cyclodextrin formulation): efficient in decreasing brain lesions
annualized rate of relapse ([7]; 3.5 mg per kilogram cumulative dose): 0.14
relapse-free rate ([7]; 3.5 mg per kilogram): 79.7%
annualized rate of relapse ([7]; 5.25 mg per kilogram cumulative dose): 0.15
relapse-free rate ([7]; 5.25 mg per kilogram): 78.9%
hazard ratio, 3-month sustained progression of disability ([7]; 3.5-mg group vs placebo): 0.67
herpes zoster ([7]; 3.5-mg group): 8 patients
lymphocytopenia (adverse event frequency) ([7]; 3.5-mg group): 21.6%
hazard ratio, 3-month sustained progression of disability ([7]; 5.25-mg group vs placebo): 0.69
herpes zoster ([7]; 5.25-mg group): 12 patients
lymphocytopenia (adverse event frequency) ([7]; 5.25-mg group): 31.5%
potential to act as inhibitor of CYP2C8 (CYP2C8): does not show significant potential to act as inhibitor
potential to act as inhibitor of CYP2C19 (CYP2C19): does not show significant potential to act as inhibitor
potential to act as inhibitor of CYP2D6 (CYP2D6): does not show significant potential to act as inhibitor
inductive effect on CYP2B6 (CYP2B6): no clinically meaningful inductive effect
inductive effect on CYP3A4 (CYP3A4): no clinically meaningful inductive effect
potential to penetrate the blood brain barrier [8]: 25%
adjusted mean number of active T2 lesions ([9]; 3.5 mg/kg): 0.38
adjusted mean number of combined unique lesions per patient per scan ([9]; 3.5 mg/kg): 0.43
incidence of ≥grade 3 lymphopenia ([9]; 3.5 mg/kg group): 25.6%
relative reduction in the mean number of active T2 lesions ([9]; 3.5 mg/kg vs placebo): 73%
relative reduction in the mean number of combined unique lesions per patient per scan ([9]; 3.5 mg/kg vs placebo): 74%
relative reduction in the mean number of T1 Gd+ lesions ([9]; 3.5 mg/kg vs placebo, brain MRI over 96 weeks): 86%
adjusted mean number of T1 Gd+ lesions ([9]; 3.5 mg/kg, brain MRI over 96 weeks): 0.12
incidence of ≥grade 3 lymphopenia ([9]; 5.25 mg/kg group): 44.9%
Proportion of patients relapse-free over 96 weeks ([9]; cumulative dose 3.5 mg/kg): 79.7%
Relative reduction (cladribine vs. placebo) of annualised relapse rate ([9]; cumulative dose 3.5 mg/kg): 57.6%
Time to 3-month FDSS progression, 10th percentile (months) ([9]; cumulative dose 3.5 mg/kg): 13.6 months
Proportion of patients relapse-free over 96 weeks ([9]; cumulative dose 5.25 mg/kg): 78.9%
Relative reduction (cladribine vs. placebo) of annualised relapse rate ([9]; cumulative dose 5.25 mg/kg): 54.5%
Time to 3-month FDSS progression, 10th percentile (months) ([9]; cumulative dose 5.25 mg/kg): 13.6 months
10th percentile of time to 6-month confirmed EDSS progression ([9]; post-hoc, 3.5 mg/kg group): not reached at all during the study period
hazard ratio, time to 6-month confirmed EDSS progression ([9]; post-hoc, 3.5 mg/kg vs placebo): 0.53
reduction of the risk of disability progression (time to 6-month confirmed EDSS progression) ([9]; post-hoc, 3.5 mg/kg vs placebo): 47%
10th percentile for disability progression [9, 14]: not reached during the entire study
hazard ratio, time to 6-month sustained disability [9, 14]: 0.18
reduction of risk of disability progression (time to 6-month sustained disability) [9, 14]: 82%
increase in exposure in patients with mild renal impairment ([10]; in vivo): 25%
non-renal part of the elimination ([10]; in vivo): approximately 50%
non-renal clearance (median) ([10]; pooled population pharmacokinetic data): 23.4 L/h

Compound: Cladribine monophosphate [Cd-AMP]
Intracellular half-life [2]: 15 h

Compound: glatiramer acetate
study outcome (PPMS patients [11]; PROMISE Study in PPMS): did not reach meaningful clinical endpoints
EDSS progression overall HR (95% CI) (PPMS patients [11]; PROMISE, CDP (3)): 0.87
% with CDP study drug, CDP (3) Month 12 (PPMS patients [11]; PROMISE, PPMS): 22%
% with CDP study drug, CDP (3) Month 24 (PPMS patients [11]; PROMISE, PPMS): 41%

Compound: ocrelizumab: humanized monoclonal antibody that targets the CD20 surface molecule on B-cells
EDSS progression overall HR (95% CI) (PPMS patients [12]; CDP (3)): 0.76
EDSS progression overall HR (95% CI) (PPMS patients [12]; CDP (6)): 0.75
% with CDP study drug, CDP (3) Week 120 (PPMS patients [12]): 32.9%
% with CDP study drug, CDP (6) Week 120 (PPMS patients [12]): 29.7%
% with CDP study drug, CDP (3) Month 12 (PPMS patients [12]; derived from the KM): ~13.2%
% with CDP study drug, CDP (6) Month 12 (PPMS patients [12]; derived from the KM): ~15.2%

Compound: rituximab: study drug of the OLYMPUS study in PPMS
study outcome (PPMS patients [13]; OLYMPUS study in PPMS): did not reach meaningful clinical endpoints
EDSS progression overall HR (95% CI) (PPMS patients [13]; OLYMPUS, CDP (3)): 0.77
% with CDP study drug, CDP (3) Week 48 (PPMS patients [13]; OLYMPUS, PPMS): 20.2%
% with CDP study drug, CDP (3) Week 96 (PPMS patients [13]; OLYMPUS, PPMS): 30.2%
% with CDP study drug, CDP (6) Week 96 (PPMS patients [13]; OLYMPUS, PPMS): 27.3%
